Source: article PMC6222487 (Molecules : A Journal of Synthetic Chemistry and Natural …, 2018)
Read-outs that look alike come from different tables or passages of the source.

Tests used:
AChE (from electric eel) = biological target: T1, AChE (from electric eel) (Electrophorus electricus, UniProt O42275); test: biochemical; assay type: biochemical; details: for Selectivity Index = IC50 (BChE)/IC50 (AChE): IC50 BuChE/IC50 AChE; for IC50: mean ± SEM, NA = No potent inhibitory activity
T1 construct: purchased Merck & Co
Description: (§1) Photometric 96-well microplates made from polystyrene (Thermo Scientific, Waltham, […]. USA) were used for measurement purposes.
(§2) AChE and BuChE inhibitory activities were measured by the spectrophotometric method of Ellman, with slight modification. Briefly, all in vitro assays were performed in 0.1 M NaH2PO4/Na2HPO4 buffer, pH 7.4, using a THERMO Enzyme-labeled Instrument. The enzyme solutions were prepared to obtain 2.0 units/mL in 2.0 mL aliquots. The assay medium (1 mL) consisted of phosphate buffer (pH 7.4), 10 μL of the enzyme, 30 μL of 0.01 M DTNB, and 30 μL of substrate (ATC or BTC) at a concentration of 0.01 M. The test and reference compounds were first dissolved in DMSO (5‰) and fetal bovine serum (1‰), and then diluted in 0.1 M NaH2PO4/Na2HPO4 buffer (pH 7.4) to provide a final concentration range. The inhibitors were added to the assay solution containing enzyme, buffer, and DTNB with pre-incubation for 20 min at 37 °C, prior to the addition of the substrate. The activity was determined by measuring the increase in absorbance at 410 nm at 1 min intervals at 37 °C. The data were calculated according to the method described by Ellman et al. Each concentration was assayed in triplicate. Blanks containing all of the components except AChE were included in the analyses.

[1] = biological target: T2, BuChE (from equine serum) (Equus caballus, UniProt P81908); test: biochemical; details: mean ± SEM
T2 construct: purchased Merck & Co; host or cells: equine serum
Description: as §1, §2

Aβ (1-42) = biological target: T3, Aβ (1-42) (Homo sapiens, UniProt P05067); test: biochemical; details: self-induced aggregation, thioflavin-T; Aβ 20 μM, 37 °C, 24 h; NA = No potent inhibitory activity
T3 construct: Aβ (1-42) peptide (Sigma-Aldrich); purchased Sigma-Aldrich
Description: A Thioflavin T-based fluorometric assay was performed in order to investigate the self-induced Aβ (1-42) aggregation. Briefly, compounds to be tested were firstly dissolved in DMSO to obtain a 10 mM solution and then diluted in phosphate buffer (pH 7.4) to provide a final concentration range. […] After incubation, thioflavin-T (5 μM in 50 mM glycine-NaOH buffer, pH 8.0) was added into the above 96-well microplate and the samples were diluted to a final volume of 150 μL. […] Each inhibitor was run in triplicate.

HepG2 cells = assay type: cell-based
Description: One of the best documented side-effects of the drug discovery and development of AD is cytotoxicity. To probe whether such a type of target compounds involves cytotoxic effects, we respectively treated HepG2 cells and SH-SY5Y cells with several concentrations of the corresponding compound. Cell viability was determined by a CCK-8 assay. […].
HepG2 cells (human hepatocellular liver carcinoma cell line from American Type Culture Collection, ATCC) were cultured in Eagle’s minimum essential medium (EMEM) supplemented with 10% heat-inactivated fetal bovine serum (FBS), and 100 U/mL of penicillin/streptomycin (Gino Biomedical Technology Co. LTD., Hangzhou, China). Cultures were seeded into flasks containing supplemented medium and maintained at 37 °C in a humidified atmosphere of 5% CO2. For assays, cells (1.0 × 10^5 cells/well) were seeded in a 96-well plate in complete medium, the medium was removed after 24 h, and cells were exposed to the increasing concentrations of compounds 8q or 8r (0, 25, 50, 125, 200, 300, 400, and 500 μM) in DMEM with no serum for a further 24 h. Cell survival was measured through a CCK-8 assay. All compounds were dissolved in pure DMSO.

SH-SY5Y cells = assay type: cell-based
Description: To probe whether such a type of target compounds involves cytotoxic effects, we respectively treated HepG2 cells and SH-SY5Y cells with several concentrations of the corresponding compound. Cell viability was determined by a CCK-8 assay.
SH-SY5Y cells (human neuroblastoma cell line from American Type Culture Collection, ATCC, Manassas, VA, USA) were seeded into 96-well plates at a density of 4 × 10^4 cells/mL in Dulbecco’s modified Eagle’s medium (DMEM) supplemented with 10% FBS and 100 U/mL of penicillin/streptomycin (Gino Biomedical Technology Co. LTD., Hangzhou, China), and incubated in a humidified atmosphere containing 5% CO2 at 37 °C. […] After this incubation, 10 μL/well of CCK-8 (5 mg/mL) was added and incubated at 37 °C for 4 h. The optical density (OD) of each well was measured using an Epoch Microplate Spectrophotometer (BioTek Instruments, Inc., Winooski, VT, USA) with a test wavelength of 450, 630 nm.

T1 sequence (O42275 24-633): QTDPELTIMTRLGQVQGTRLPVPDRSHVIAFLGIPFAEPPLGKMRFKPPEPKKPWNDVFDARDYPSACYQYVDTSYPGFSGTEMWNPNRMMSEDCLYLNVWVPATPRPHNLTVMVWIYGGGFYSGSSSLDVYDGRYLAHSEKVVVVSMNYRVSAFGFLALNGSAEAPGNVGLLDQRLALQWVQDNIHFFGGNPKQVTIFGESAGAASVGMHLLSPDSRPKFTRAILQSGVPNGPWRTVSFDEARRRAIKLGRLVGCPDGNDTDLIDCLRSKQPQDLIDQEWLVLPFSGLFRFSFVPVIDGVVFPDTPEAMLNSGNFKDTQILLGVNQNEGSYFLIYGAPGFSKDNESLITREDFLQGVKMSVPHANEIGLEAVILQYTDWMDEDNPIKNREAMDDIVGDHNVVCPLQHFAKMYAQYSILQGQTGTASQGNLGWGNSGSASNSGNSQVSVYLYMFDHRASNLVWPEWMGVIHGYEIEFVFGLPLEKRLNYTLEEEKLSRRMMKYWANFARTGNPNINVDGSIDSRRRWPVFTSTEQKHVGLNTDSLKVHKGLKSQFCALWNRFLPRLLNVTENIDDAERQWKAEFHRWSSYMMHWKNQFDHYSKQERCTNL
T2 sequence (P81908 whole entry): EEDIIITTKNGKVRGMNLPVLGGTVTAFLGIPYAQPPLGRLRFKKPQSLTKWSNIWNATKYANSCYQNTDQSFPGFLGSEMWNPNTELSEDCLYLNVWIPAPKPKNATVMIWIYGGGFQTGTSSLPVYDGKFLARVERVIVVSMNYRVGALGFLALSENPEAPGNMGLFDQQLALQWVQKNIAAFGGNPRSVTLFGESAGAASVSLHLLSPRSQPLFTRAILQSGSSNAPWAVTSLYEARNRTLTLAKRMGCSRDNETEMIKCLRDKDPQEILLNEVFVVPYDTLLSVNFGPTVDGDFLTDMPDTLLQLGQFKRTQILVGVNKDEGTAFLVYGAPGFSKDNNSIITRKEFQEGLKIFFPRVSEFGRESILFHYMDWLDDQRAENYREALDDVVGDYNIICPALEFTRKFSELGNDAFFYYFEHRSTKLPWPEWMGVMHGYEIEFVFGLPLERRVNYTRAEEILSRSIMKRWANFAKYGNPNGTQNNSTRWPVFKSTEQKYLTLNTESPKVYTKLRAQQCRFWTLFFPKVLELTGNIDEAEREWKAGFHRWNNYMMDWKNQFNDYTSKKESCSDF
T3 sequence (P05067 672-713): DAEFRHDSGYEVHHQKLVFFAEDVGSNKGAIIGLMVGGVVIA

Row | Compound | Selectivity Index = IC50 (BChE)/IC50 (AChE) (AChE (from electric eel)) | IC50 (AChE (from electric eel)) | IC50 [1] | IC50 (Aβ (1-42)) | other results
1 | COc1cccc(C(=O)OCCCOC(=O)c2nc(C)c(C)nc2C)c1OC [Compound 8a, 3-[(2,3-Dimethoxybenzoyl)oxy]propyl 3,5,6-trimethylpyrazine-2-carboxylate] | 2.16 × 10^4 | 0.1679 ± 0.00039 µM | 3630 ± 70 µM |  | 
2 | COc1cc(OC)cc(C(=O)OCCCOC(=O)c2nc(C)c(C)nc2C)c1 [Compound 8b, 3-[(3,5-Dimethoxybenzoyl)oxy]propyl 3,5,6-trimethylpyrazine-2-carboxylate] | 1.27 × 10^6 | 0.00443 ± 0.00035 µM | 5640 ± 380 µM | 3.66 ± 0.104 µM | 
3 | COc1ccc(C(=O)OCCCOC(=O)c2nc(C)c(C)nc2C)c(OC)c1 [Compound 8c, 3-[(2,4-Dimethoxybenzoyl)oxy]propyl 3,5,6-trimethylpyrazine-2-carboxylate] |  | 0.3879 ± 0.00045 µM | 2700 ± 30 µM | 22.54 ± 0.014 µM | 
4 | COc1ccc(C(=O)OCCCOC(=O)c2nc(C)c(C)nc2C)cc1OC [Compound 8d, 3-[(3,4-Dimethoxybenzoyl)oxy]propyl 3,5,6-trimethylpyrazine-2-carboxylate] | 1.02 × 10^6 | 0.00412 ± 0.00024 µM | 4290 ± 120 µM | 51.81 ± 0.047 µM | 
5 | COc1cccc(OC)c1C(=O)OCCCOC(=O)c1nc(C)c(C)nc1C [Compound 8e, 3-[(2,6-Dimethoxybenzoyl)oxy]propyl 3,5,6-trimethylpyrazine-2-carboxylate] | 2.36 × 10^3 | 0.1438 ± 0.00025 µM | 340 ± 30 µM | 55.86 ± 0.035 µM | 
6 | Cc1nc(C)c(C(=O)OCCCOC(=O)c2cccc(Cl)c2)nc1C [Compound 8f, 3-[(3-Chlorobenzoyl)oxy]propyl 3,5,6-trimethylpyrazine-2-carboxylate] | 4.95 × 10^5 | 0.00661 ± 0.00013 µM | 3270 ± 60 µM | 45.88 ± 0.024 µM | 
7 | Cc1nc(C)c(C(=O)OCCCOC(=O)c2cccc(Br)c2)nc1C [Compound 8g, 3-[(3-Bromobenzoyl)oxy]propyl 3,5,6-trimethylpyrazine-2-carboxylate] | 6.23 |  | 21100 ± 460 µM |  | 
8 | Cc1nc(C)c(C(=O)OCCCOC(=O)c2ccc(Br)cc2)nc1C [Compound 8h, 3-[(4-Bromobenzoyl)oxy]propyl 3,5,6-trimethylpyrazine-2-carboxylate] | 2.62 |  | 2490 ± 290 µM |  | 
9 | Cc1nc(C)c(C(=O)OCCCOC(=O)c2ccc(F)cc2)nc1C [Compound 8i, 3-[(4-Fluorobenzoyl)oxy]propyl 3,5,6-trimethylpyrazine-2-carboxylate] | 1.14 × 10^2 |  |  | 211.18 ± 0.039 µM | 
10 | Cc1nc(C)c(C(=O)OCCCOC(=O)Cc2ccc(Br)cc2)nc1C [Compound 8m, 3-{[(4-Bromophenyl)acetyl]oxy}propyl 3,5,6-trimethylpyrazine-2-carboxylate] | 52.17 |  |  | 200.84 ± 0.016 µM | 
11 | COc1ccc(CC(=O)OCCCOC(=O)c2nc(C)c(C)nc2C)cc1F [Compound 8n, 3-{[(3-Fluoro-4-methoxyphenyl)acetyl]oxy}propyl 3,5,6-trimethylpyrazine-2-carboxylate] | 20.67 |  | 3060 ± 340 µM |  | 
12 | Nc1c2c(nc3ccccc13)CCCC2 [Tacrine, reference compound] |  |  |  |  | Cell viability (HepG2 cells; 25 µM): 99.78 ± 1.07 ^ns percentage of control; Cell viability (HepG2 cells; 50 µM): 95.02 ± 2.30 ^ns percentage of control; Cell viability (HepG2 cells; 125 µM): 83.72 ± 0.73 percentage of control; Cell viability (HepG2 cells; 200 µM): 81.80 ± 1.86 percentage of control; Cell viability (HepG2 cells; 300 µM): 74.32 ± 3.93 percentage of control; Cell viability (HepG2 cells; 400 µM): 23.61 ± 0.05 percentage of control; Cell viability (HepG2 cells; 500 µM): 19.92 ± 0.05 percentage of control; Cell viability (SH-SY5Y cells; 25 µM): 87.89 ± 0.85 ^ns percentage of control; Cell viability (SH-SY5Y cells; 50 µM): 88.17 ± 1.55 ^ns percentage of control; Cell viability (SH-SY5Y cells; 125 µM): 75.42 ± 0.78 percentage of control; Cell viability (SH-SY5Y cells; 200 µM): 48.75 ± 0.43 percentage of control; Cell viability (SH-SY5Y cells; 300 µM): 43.39 ± 2.69 percentage of control; Cell viability (SH-SY5Y cells; 400 µM): 34.69 ± 2.86 percentage of control
